Data set [1] deals with Rattus norvegicus. Kind of data set: Antiinflammatory activity in Wistar rat assessed as reduction of carrageenan-induced increase in paw volume at 30 mg/kg, po after 4 hrs. It counts as functional. (In the carrageenan paw model, swelling and tenderness develop within hours.)
In data set [2] the test system is Mus musculus. Kind of data set: Toxicity in Swiss albino mouse up to 1000 mg/kg, po. The data set is classed as organism-based. The arrangement: dose 1000 mg/kg, route oral. As to conditions: in vivo.
For data set [3], the system named is Rattus norvegicus. In words: Antiinflammatory activity in Wistar rat assessed as reduction of carrageenan-induced increase in paw volume at 30 mg/kg, po after 24 hrs. The data set is classed as functional.
Data set [4] has as its system Rattus norvegicus. In words: Antiinflammatory activity in Wistar rat assessed as reduction of carrageenan-induced increase in paw volume at 30 mg/kg, po after 3 hrs. It counts as functional.
Data set [5] relates to Rattus norvegicus. In words: Antiinflammatory activity in Wistar rat assessed as reduction of carrageenan-induced increase in paw volume at 1000 mg/kg, po. Also on record: dose 1000 mg/kg. It counts as functional, organism-based.
The test system of data set [6] is Rattus norvegicus. Kind of data set: Toxicity in Wistar rat up to 1000 mg/kg, po. The data set is classed as organism-based. The arrangement: dose 1000 mg/kg, route oral. Particulars: in vivo.
The subject of data set [7] is Rattus norvegicus. In words: Antiinflammatory activity in Wistar rat assessed as reduction of carrageenan-induced increase in paw volume at 30 mg/kg, po after 2 hrs. It counts as functional.
In data set [8] the test system is Mus musculus. Kind of data set: Analgesic activity against acetic acid-induced writhing in Swiss albino mouse at 30 mg/kg, po. Also on record: dose 30 mg/kg. It counts as functional, organism-based.

Experimental findings from ChEMBL document CHEMBL1158640, “Synthesis, analgesic and anti-inflammatory activities of some novel pyrazolines derivatives” (Bioorg Med Chem Lett, 2010) are described below.

Molecules are shown by their SMILES. Active and inactive are the calls of the source. The calls are words filed in the database; no cut-off is given here.

Turning to `Oc1c(Cl)cc(Cl)cc1C1=NNC(c2ccc(N3CCOCC3)cc2)C1` (stereo unspecified), the Activity is 1.75 mL in the data set with Rattus norvegicus [1]; “Non-toxic” in the data set on Mus musculus [2]; 1.72 mL in the data set with Rattus norvegicus [3]; 1.46 mL with Rattus norvegicus [4]; “Non-toxic” with Rattus norvegicus [6]; 1.41 mL with Rattus norvegicus [7]. Also, in the data set on Rattus norvegicus [5], the result was Active.

As for `Cc1ccc(O)c(C2=NNC(c3ccc(N4CCOCC4)cc3)C2)c1` (stereo unspecified), the Activity in the data set on Rattus norvegicus [1] is 0.96 mL; in the data set on Mus musculus [2], “Non-toxic”; in the data set on Rattus norvegicus [3] it was 0.79 mL; in the data set with Rattus norvegicus [4], 0.85 mL; with Rattus norvegicus [6], “Non-toxic”; with Rattus norvegicus [7] it was 0.87 mL. Also, the result in the data set on Rattus norvegicus [5] and in the data set with Mus musculus [8] was Active.

In the case of `Oc1ccccc1C1=NNC(c2ccc(N3CCOCC3)cc2)C1` (stereo unspecified), the Activity with Rattus norvegicus [1] was 0.69 mL; in the data set on Mus musculus [2], “Non-toxic”; in the data set with Rattus norvegicus [3], 0.68 mL; with Rattus norvegicus [4], 0.59 mL; in the data set with Rattus norvegicus [6], “Non-toxic”; with Rattus norvegicus [7] it was 0.73 mL. The result in the data set with Rattus norvegicus [5] was Active.

Regarding `Cc1cc(C)c(O)c(C2=NN(C(=S)Nc3ccccc3)C(c3ccc(N4CCOCC4)cc3)C2)c1` (stereo unspecified), the Activity in the data set on Rattus norvegicus [1] is 1.63 mL; in the data set with Mus musculus [2], “Non-toxic”; in the data set with Rattus norvegicus [3], 1.73 mL; in the data set with Rattus norvegicus [4], 1.81 mL; in the data set on Rattus norvegicus [6] it was “Non-toxic”; in the data set on Rattus norvegicus [7], 1.41 mL. Moreover, in the data set on Rattus norvegicus [5], the result was Active.

`Cc1cc(O)c(C2=NNC(c3ccc(N4CCOCC4)cc3)C2)cc1Cl` (stereo unspecified): the Activity was 1.63 mL in the data set with Rattus norvegicus [1]; “Non-toxic” in the data set with Mus musculus [2]; 1.93 mL with Rattus norvegicus [3]; 1.62 mL with Rattus norvegicus [4]; “Non-toxic” in the data set with Rattus norvegicus [6]; 1.56 mL in the data set with Rattus norvegicus [7]. Besides, in the data set with Rattus norvegicus [5], the result was Active.

On to `Oc1ccc(Cl)cc1C1=NN(C(=S)Nc2ccccc2)C(c2ccc(N3CCOCC3)cc2)C1` (stereo unspecified), for which the Activity with Rattus norvegicus [1] is 0.72 mL; in the data set on Mus musculus [2], “Non-toxic”; in the data set on Rattus norvegicus [3], 0.86 mL; in the data set on Rattus norvegicus [4], 0.72 mL; in the data set with Rattus norvegicus [6], “Non-toxic”; in the data set with Rattus norvegicus [7] it was 0.64 mL. Besides, the result in the data set with Rattus norvegicus [5] and with Mus musculus [8] was Active.

For the molecule `Oc1ccc(Br)cc1C1=NN(C(=S)Nc2ccccc2)C(c2ccc(N3CCOCC3)cc2)C1` (stereo unspecified), the Activity in the data set with Rattus norvegicus [1] is 0.91 mL; in the data set with Mus musculus [2] it was “Non-toxic”; with Rattus norvegicus [3], 0.92 mL; in the data set on Rattus norvegicus [4], 0.69 mL; in the data set on Rattus norvegicus [6], “Non-toxic”; in the data set on Rattus norvegicus [7] it was 0.87 mL. The result in the data set with Rattus norvegicus [5] and in the data set on Mus musculus [8] was Active.

`Oc1ccccc1C1=NN(C(=S)Nc2ccccc2)C(c2ccc(N3CCOCC3)cc2)C1` (stereo unspecified): the Activity was 0.84 mL in the data set with Rattus norvegicus [1]; “Non-toxic” in the data set with Mus musculus [2]; 0.94 mL with Rattus norvegicus [3]; 0.62 mL in the data set on Rattus norvegicus [4]; “Non-toxic” in the data set with Rattus norvegicus [6]; 0.82 mL with Rattus norvegicus [7]. Further, the outcome in the data set with Rattus norvegicus [5] was Active.

`Oc1ccc(Cl)cc1C1=NNC(c2ccc(N3CCOCC3)cc2)C1` (stereo unspecified): the Activity with Rattus norvegicus [1] is 1.61 mL; in the data set with Mus musculus [2], “Non-toxic”; with Rattus norvegicus [3], 1.92 mL; in the data set with Rattus norvegicus [4], 1.6 mL; in the data set on Rattus norvegicus [6], “Non-toxic”; in the data set with Rattus norvegicus [7], 1.52 mL. In addition, in the data set on Rattus norvegicus [5], the result was Active.

With `Cc1ccc(O)c(C2=NN(C(=S)Nc3ccccc3)C(c3ccc(N4CCOCC4)cc3)C2)c1` (stereo unspecified), the Activity in the data set with Rattus norvegicus [1] was 1.43 mL; with Mus musculus [2], “Non-toxic”; with Rattus norvegicus [3] it was 1.92 mL; in the data set with Rattus norvegicus [4] it was 1.6 mL; in the data set with Rattus norvegicus [6], “Non-toxic”; in the data set on Rattus norvegicus [7], 1.52 mL. For the same molecule, the outcome in the data set with Rattus norvegicus [5] was Active.

For `Oc1ccc(Br)cc1C1=NNC(c2ccc(N3CCOCC3)cc2)C1` (stereo unspecified), the Activity is 0.64 mL with Rattus norvegicus [1]; “Non-toxic” with Mus musculus [2]; 0.98 mL with Rattus norvegicus [3]; 0.52 mL in the data set on Rattus norvegicus [4]; “Non-toxic” with Rattus norvegicus [6]; 0.86 mL in the data set with Rattus norvegicus [7]. In addition, the result with Rattus norvegicus [5] and in the data set with Mus musculus [8] was Active.

For `Cc1cc(O)c(C2=NN(C(=S)Nc3ccccc3)C(c3ccc(N4CCOCC4)cc3)C2)cc1Cl` (stereo unspecified), the Activity in the data set with Rattus norvegicus [1] is 1.57 mL; in the data set with Mus musculus [2], “Non-toxic”; in the data set on Rattus norvegicus [3], 1.92 mL; in the data set with Rattus norvegicus [4], 1.53 mL; in the data set with Rattus norvegicus [6] it was “Non-toxic”; with Rattus norvegicus [7] it was 1.42 mL. Further, the result in the data set with Rattus norvegicus [5] was Active.

As to `Cc1cc(C)c(O)c(C2=NNC(c3ccc(N4CCOCC4)cc3)C2)c1` (stereo unspecified), the Activity in the data set with Rattus norvegicus [1] is 1.53 mL; in the data set with Mus musculus [2], “Non-toxic”; in the data set with Rattus norvegicus [3], 1.92 mL; in the data set with Rattus norvegicus [4], 1.57 mL; in the data set with Rattus norvegicus [6] it was “Non-toxic”; in the data set on Rattus norvegicus [7] it was 1.38 mL. Besides, the outcome in the data set with Rattus norvegicus [5] was Active.

Turning to `Oc1c(Cl)cc(Cl)cc1C1=NN(C(=S)Nc2ccccc2)C(c2ccc(N3CCOCC3)cc2)C1` (stereo unspecified), the Activity in the data set with Rattus norvegicus [1] was 1.52 mL; with Mus musculus [2] it was “Non-toxic”; in the data set with Rattus norvegicus [3], 1.92 mL; in the data set on Rattus norvegicus [4], 1.47 mL; with Rattus norvegicus [6], “Non-toxic”; with Rattus norvegicus [7], 1.49 mL. For the same molecule, in the data set with Rattus norvegicus [5], the result was Active.

As for `O=C([O-])Cc1ccccc1Nc1c(Cl)cccc1Cl.[Na+]` [DICLOFENAC SODIUM], the Activity in the data set on Rattus norvegicus [1] came to 0.18 mL; with Rattus norvegicus [3], 0.03 mL; in the data set on Rattus norvegicus [4], 0.18 mL; with Rattus norvegicus [7], 0.18 mL.
